Assay results as given in patent publication US20230080054A1 (ILDONG PHARMACEUTICAL CO., LTD., priority 2021, published 2023).

Experiments:
[1] = target: T1, human ANO6 (Homo sapiens, UniProt Q4KMQ2); assay: LACT C2 assay (phosphatidylserine scramblase function assay); format: cell-based; conditions: FRT cells expressing human ANO6, 10 μM ionomycin; for inhibition at 0.1 µM: test compound 100 nM, read-out: Inhibition Level 100 nM; for inhibition at 1 µM: test compound 1 μM, read-out: Inhibition Level 1 μM
T1 construct: expressed in transfected cells
T1 sequence (Q4KMQ2 1-931 isoform Q4KMQ2-2): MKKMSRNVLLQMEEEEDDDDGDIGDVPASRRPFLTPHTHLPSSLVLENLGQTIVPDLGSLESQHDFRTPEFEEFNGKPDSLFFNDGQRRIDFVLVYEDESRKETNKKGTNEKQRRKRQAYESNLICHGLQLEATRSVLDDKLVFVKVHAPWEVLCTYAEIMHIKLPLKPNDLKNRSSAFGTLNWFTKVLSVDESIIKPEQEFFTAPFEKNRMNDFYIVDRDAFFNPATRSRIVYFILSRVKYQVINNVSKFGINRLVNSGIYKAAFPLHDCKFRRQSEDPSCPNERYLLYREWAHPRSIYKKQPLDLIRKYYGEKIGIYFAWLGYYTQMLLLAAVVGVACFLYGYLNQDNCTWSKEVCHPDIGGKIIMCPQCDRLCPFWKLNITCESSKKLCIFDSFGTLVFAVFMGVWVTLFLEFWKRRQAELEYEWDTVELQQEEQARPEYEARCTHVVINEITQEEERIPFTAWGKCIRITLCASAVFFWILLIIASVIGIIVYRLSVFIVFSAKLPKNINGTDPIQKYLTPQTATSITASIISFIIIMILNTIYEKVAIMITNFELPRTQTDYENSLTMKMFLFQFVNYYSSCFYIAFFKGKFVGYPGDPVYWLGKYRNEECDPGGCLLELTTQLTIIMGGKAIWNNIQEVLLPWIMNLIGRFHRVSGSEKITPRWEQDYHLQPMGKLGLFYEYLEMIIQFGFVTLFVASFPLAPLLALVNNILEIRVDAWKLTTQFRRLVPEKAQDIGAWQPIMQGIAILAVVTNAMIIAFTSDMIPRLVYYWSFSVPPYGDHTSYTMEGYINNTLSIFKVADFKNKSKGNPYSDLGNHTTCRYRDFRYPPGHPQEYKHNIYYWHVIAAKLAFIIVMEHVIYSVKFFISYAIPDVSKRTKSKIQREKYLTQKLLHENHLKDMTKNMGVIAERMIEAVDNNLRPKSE
In short: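 Inhibition was normalised between ionomycin-only (0%) and untreated (100%) wells, with triplicates averaged. Readout was background-corrected Lact-C2-GFP (500 nM) fluorescence from imaged cells. The cells were FRT cells stably expressing human ANO6, given compound at 1% DMSO for 10 min before a 10 min 10 μM ionomycin challenge.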

[2] = target: T1, human ANO6; assay: YFP quenching assay (ANO6 ion channel activity); format: cell-based; conditions: 10 μM ionomycin; for inhibition at 1 µM: test compound 1 μM, read-out: Inhibition Level 1 μM; for inhibition at 30 µM: test compound 30 μM, read-out: Inhibition Level 30 μM
In short: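 FRT cells stably expressing human ANO6 and YFP-H148Q/I152L/F46L, preincubated 10 min at 40° C with compounds (1% DMSO) in PBS. Quench read every 0.4 s after injecting 140 mM SCN- with 10 μM ionomycin; % inhibition from the 3.6–7.6 s fluorescence difference, normalised to no-ionomycin (100%) and ionomycin-only (0%) wells, duplicate or triplicate.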

inhibition at 0.1 µM [1] [%] | inhibition at 1 µM [1] [%] | inhibition at 1 µM [2] [%] | inhibition at 30 µM [2] [%] | Structure (SMILES)
< 30 | < 30 | ≥ 60 | ≥ 60 | Cc1ccc(CNC(=O)c2cccc(Nc3ccc(-c4ccccc4)nn3)c2)cc1 [Compound A52]
– | < 30 | ≥ 60 | ≥ 60 | O=C(NCC1CC1)c1cccc(Nc2ccc(-c3ccccc3)nn2)c1 [Compound 32, N-(cyclopropylmethyl)-3-[(6-phenylpyridazin-3-yl)amino]benzamide]
– | < 30 | ≥ 60 | – | O=C(NCCCc1ccccc1)c1cccc(Nc2cnc(-c3ccccc3)cn2)c1 [Compound 54, N-(3-phenylpropyl)-3-[(5-phenylpyrazin-2-yl)amino]benzamide]
< 30 | < 30 | ≥ 60 | ≥ 60 | CC(C)NC(=O)c1cccc(Nc2ccc(-c3ccccc3)nn2)c1 [Compound A12]
< 30 | < 30 | 30 to 60 | ≥ 60 | CCOc1ccc(CNC(=O)c2cccc(Nc3ccc(-c4ccccc4)nn3)c2)cc1OCC [Compound A54]
< 30 | 30 to 60 | ≥ 60 | ≥ 60 | O=C(NCc1ccc(Br)cc1)c1cccc(Nc2ccc(-c3ccccc3)nn2)c1 [Compound A43]
< 30 | ≥ 60 | 30 to 60 | ≥ 60 | O=C(NCc1ccccc1Cl)c1cccc(Nc2ccc(-c3ccccc3)nn2)c1 [Compound A46]
– | – | 30 to 60 | ≥ 60 | CCNC(=O)c1cccc(Nc2ccc(-c3ccccc3)nn2)c1 [Compound 37, N-ethyl-3-[(6-phenylpyridazin-3-yl)amino]benzamide]
– | – | < 30 | – | Cc1ccc(CNC(=O)c2cccc(Nc3ncc(-c4ccc(C(F)(F)F)cc4)cn3)c2)o1 [Compound 100, N-[(5-methylfuran-2-yl)methyl]-3-({5-[4-(trifluoromethyl)phenyl]pyrimidin-2-yl}amino)benzamide]
– | – | – | < 30 | Cc1ccc(CNC(=O)c2cccc(Nc3ccc(-c4ccc(Cl)c(Cl)c4)nn3)c2)o1 [Compound 16, 3-{[6-(3,4-dichlorophenyl)pyridazin-3-yl]amino}-N-[(5-methylfuran-2-yl)methyl]benzamide]
– | – | < 30 | – | O=C(NCCN1CCCCC1)c1cccc(Nc2ncc(-c3ccccc3)cn2)c1 [Compound 93, 3-[(5-phenylpyrimidin-2-yl)amino]-N-[2-(piperidin-1-yl)ethyl]benzamide]
– | – | 30 to 60 | ≥ 60 | CCN(CCCNC(=O)c1cccc(Nc2ccc(-c3ccccc3)nn2)c1)Cc1ccccc1 [Compound A42]
– | – | < 30 | – | Cc1ccc(CNC(=O)c2cccc(Nc3ccc(C4CCN(C(=O)OC(C)(C)C)CC4)nn3)c2)o1 [Compound 69, tert-butyl 4-{6-[(3-{[(5-methylfuran-2-yl)methyl]carbamoyl}phenyl)amino]pyridazin-3-yl}piperidine-1-carboxylate]
– | – | < 30 | – | Cc1ccc(Nc2cccc(C(=O)NCc3ccc(C)o3)c2)nn1 [Compound 47, N-[(5-methylfuran-2-yl)methyl]-3-[(6-methylpyridazin-3-yl)amino]benzamide]
– | – | < 30 | 30 to 60 | CCN(CC)CCCNC(=O)c1cccc(Nc2ccc(-c3ccccc3)nn2)c1 [Compound A59]
– | – | 30 to 60 | – | CN(CCNC(=O)c1cccc(Nc2ccc(-c3ccccc3)nn2)c1)Cc1ccccc1 [Compound 124]
– | – | – | 30 to 60 | NC(=O)c1ccc(Nc2ccc(-c3ccccc3)nn2)cc1 [Compound A86]
– | – | 30 to 60 | ≥ 60 | O=C(NC1CCCc2ccccc21)c1cccc(Nc2ccc(-c3ccccc3)nn2)c1 (centres unmarked) [Compound A56]
– | – | < 30 | – | Cc1ccc(CNC(=O)c2cccc(Nc3ccc(C4CCCO4)nn3)c2)o1 (centres unmarked) [Compound 86, N-[(5-methylfuran-2-yl)methyl]-3-{[6-(oxolan-2-yl)pyridazin-3-yl]amino}benzamide]
